Source: patent US12358932B2, “Chemical compounds” (BORAH, INC., priority 2019, dated 2025)

What follows are compounds tested against T1, Recombinant human PDE4B (Homo sapiens, UniProt Q07343) (assay: PDE4B Phosphodiesterase Assay). Conditions: compared to compounds of the disclosure.
T1 construct: aa 305-end; GST (N); made in house; host or cells: Sf9 insect cells (baculovirus)
Format: biochemical
Experimental: The assay is based on the fluorescence polarization measuring AMP/GMP production as a result of the enzyme activity by displacement of Tracer binding to the AMP/GMP antibody. • Reaction Buffer: 10 mM Tris-HCl, pH 7.5, 5 mM MgCl2, 0.01% Brij 35, 1 mM DTT and 1% DMSO. • Enzyme: Recombinant human PDE4B (Gene Accession #NM_002600; aa 305-end) was expressed by baculovirus in Sf9 insect cells using an N-terminal GST tag. Mw=78 kDa. • Substrate: 1 μM cAMP • Detection: Transcreener® AMP2/GMP2 Antibody AMP2/GMP2 AlexaFluor 633 Tracer Reaction Procedure: • 1. Prepared indicated enzyme and substrate in freshly prepared Reaction Buffer • 2. Delivered enzyme solution into the reaction well • 3. Delivered compounds in 100% DMSO into the enzyme solution by Acoustic technology (Echo550; nanoliter range), incubated for 10 min at room temperature • 4. Delivered substrate solution into the reaction well to initiate the reaction • 5. Incubated for 1 h at room temperature • 6. Added detection mixture (Tracer and antibody in the stop buffer) to stop the reaction and incubated for 90 min with gentle mixing. The fluorescence polarization was measured at Ex/Em 620/688.
Data Analysis: The FP signals were converted into nM product based on an AMP/GMP standard curve and calculated % Enzyme activity relative to DMSO control by Excel. The curve fit was performed using GraphPad prism.

T1 sequence (Q07343 305-736 limits assumed): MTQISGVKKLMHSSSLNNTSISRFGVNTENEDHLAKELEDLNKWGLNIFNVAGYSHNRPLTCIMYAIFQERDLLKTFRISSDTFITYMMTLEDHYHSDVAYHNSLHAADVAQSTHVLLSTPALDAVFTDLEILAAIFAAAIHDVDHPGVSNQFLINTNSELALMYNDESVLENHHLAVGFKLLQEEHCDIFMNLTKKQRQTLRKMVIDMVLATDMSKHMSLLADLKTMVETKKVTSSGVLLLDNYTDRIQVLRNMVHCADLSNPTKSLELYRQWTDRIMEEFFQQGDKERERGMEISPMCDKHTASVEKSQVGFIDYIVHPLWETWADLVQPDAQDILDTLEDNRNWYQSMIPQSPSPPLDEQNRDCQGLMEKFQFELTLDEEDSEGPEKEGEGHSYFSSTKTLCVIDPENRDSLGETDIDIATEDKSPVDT

PDE4 activity	Compound
diminish in PDE4 activity	Cc1cnc(N(C)c2ccc3c(c2)COB3O)nc1OC1CCCCC1 [A, 5-((4-(cyclohexyloxy)-5-methylpyrimidin-2-yl)(methyl)amino)benzo[c][1,2]oxaborol-1(3H)-ol, reference compound]
diminish in PDE4 activity	Cc1cnc(N(C)c2ccc3c(c2)COB3O)nc1NC1CCCC1 [B, 5-((4-(cyclopentylamino)-5-methylpyrimidin-2-yl)(methyl)amino)benzo[c][1,2]oxaborol-1(3H)-ol, reference compound]

Each compound was assayed on JAK (assay: Biochemical Kinase Assay Protocol (JAK)). Conditions: compared to compounds of the disclosure.
Experimental: Biochemical Kinase Assay Protocol (JAK, TrkA, Syk, Tyk2)
Reagent: Base Reaction buffer; 20 mM Hepes (pH 7.5), 10 mM MgCl2, 1 mM EGTA, 0.02% Brij™ 35, 0.02 mg/ml BSA, 0.1 mM Na3VO4, 2 mM DTT, 1% DMSO, where required cofactors are added individually to each kinase reaction.
• 1. Prepare indicated substrate in freshly prepared Base Reaction Buffer • 2. Deliver any required cofactors to the substrate solution above • 3. Deliver indicated kinase (JAK or TrkA) into the substrate solution and gently mix • 4. Deliver compounds in DMSO into the kinase reaction mixture by Acoustic technology (Echo550; nanoliter range), incubate for 20 minutes at room temperature • 5. Deliver 33P-ATP into the reaction mixture to initiate the reaction. • 6. Incubate kinase reaction for 2 hours at room temperature • 7. Reactions are spotted onto P81 ion exchange paper • 8. Detect kinase activity by filter-binding method. PDE4B Phosphodiesterase Assay

Compound	JAK activity
Cc1cnc(N(C)c2ccc3c(c2)COB3O)nc1OC1CCCCC1 [A, 5-((4-(cyclohexyloxy)-5-methylpyrimidin-2-yl)(methyl)amino)benzo[c][1,2]oxaborol-1(3H)-ol, reference compound]	no JAK activity or significantly decreased JAK activity
Cc1cnc(N(C)c2ccc3c(c2)COB3O)nc1NC1CCCC1 [B, 5-((4-(cyclopentylamino)-5-methylpyrimidin-2-yl)(methyl)amino)benzo[c][1,2]oxaborol-1(3H)-ol, reference compound]	no JAK activity or significantly decreased JAK activity

Same assay, conditions: compound list; + = noted target activity, number of * = preference

Compound	Activity Note: JAK
CCC(CC)Nc1nc(Nc2ccc3c(c2)C(C)OB3O)ncc1C (stereo not shown) [3-methyl-5-((5-methyl-4-(pentan-3-ylamino)pyrimidin-2-yl)amino)benzo[c][1,2]oxaborol-1(3H)-ol]	JAK+***
CCC(CC)Nc1nc(Nc2cc(Cl)c3c(c2)C(C)(C)OB3O)ncc1C [7-chloro-3,3-dimethyl-5-((5-methyl-4-(pentan-3-ylamino)pyrimidin-2-yl)amino)benzo[c][1,2]oxaborol-1(3H)-ol]	JAK+***
Cc1cnc(Nc2ccc3c(c2)C(C)OB3O)nc1NC1CCCC1 (stereo not shown) [5-((4-(cyclopentylamino)-5-methylpyrimidin-2-yl)amino)-3-methylbenzo[c][1,2]oxaborol-1(3H)-ol]	JAK+***
Cc1cnc(Nc2cc(C)c3c(c2)COB3O)nc1NC1CCCC1 [5-((4-(cyclopentylamino)-5-methylpyrimidin-2-yl)amino)-7-methylbenzo[c][1,2]oxaborol-1(3H)-ol]	JAK+***
Cc1cnc(Nc2ccc3c(c2)B(O)OC3)nc1NC1CCCCC1 [6-((4-(cyclohexylamino)-5-methylpyrimidin-2-yl)amino)benzo[c][1,2]oxaborol-1(3H)-ol]	JAK+*
CCC(CC)Nc1nc(Nc2cc3c(c(C(F)(F)F)c2)B(O)OC3)ncc1C [5-((5-methyl-4-(pentan-3-ylamino)pyrimidin-2-yl)amino)-7-(trifluoromethyl)benzo[c][1,2]oxaborol-1(3H)-ol]	JAK+***
Cc1cnc(Nc2cc3c(c(C(F)(F)F)c2)B(O)OC3)nc1Nc1ccccc1 [5-((5-methyl-4-(phenylamino)pyrimidin-2-yl)amino)-7-(trifluoromethyl)benzo[c][1,2]oxaborol-1(3H)-ol]	JAK+***
CCC(CC)Nc1nc(Nc2cc(C)c3c(c2)C(C)OB3O)ncc1C (stereo not shown) [3,7-dimethyl-5-((5-methyl-4-(pentan-3-ylamino)pyrimidin-2-yl)amino)benzo[c][1,2]oxaborol-1(3H)-ol]	JAK+***
CCC(CC)Nc1nc(Nc2cc(C)c3c(c2)C(C)(C)OB3O)ncc1C [3,3,7-trimethyl-5-((5-methyl-4-(pentan-3-ylamino)pyrimidin-2-yl)amino)benzo[c][1,2]oxaborol-1(3H)-ol]	JAK+***
CCc1cc(Nc2nccc(NC3CCCC3)n2)cc2c1B(O)OC2 [5-((4-(cyclopentylamino)pyrimidin-2-yl)amino)-7-ethylbenzo[c][1,2]oxaborol-1(3H)-ol]	JAK+**
Cc1cnc(Nc2ccc3c(c2)B(O)OC3)nc1NC1CCC(C)CC1 (stereo not shown) [6-((5-methyl-4-((4-methylcyclohexyl)amino)pyrimidin-2-yl)amino)benzo[c][1,2]oxaborol-1(3H)-ol]	JAK+**
OB1OCc2cc(Nc3ncc(Cl)c(NC4CCCC4)n3)cc(C(F)(F)F)c21 [5-((5-chloro-4-(cyclopentylamino)pyrimidin-2-yl)amino)-7-(trifluoromethyl)benzo[c][1,2]oxaborol-1(3H)-ol]	JAK+***
Cc1cc(Nc2ncc(Cl)c(NC3CCCC3)n2)cc2c1B(O)OC2(C)C [5-((5-chloro-4-(cyclopentylamino)pyrimidin-2-yl)amino)-3,3,7-trimethylbenzo[c][1,2]oxaborol-1(3H)-ol]	JAK+***
CCC(CC)Nc1nc(Nc2cc(C)c3c(c2)COB3O)ncc1C [7-methyl-5-((5-methyl-4-(pentan-3-ylamino)pyrimidin-2-yl)amino)benzo[c][1,2]oxaborol-1(3H)-ol]	JAK+***
CC1OB(O)c2ccc(Nc3ncc(Cl)c(NC4CCCC4)n3)cc21 (stereo not shown) [5-((5-chloro-4-(cyclopentylamino)pyrimidin-2-yl)amino)-3-methylbenzo[c][1,2]oxaborol-1(3H)-ol]	JAK+***
CCC(CC)Nc1nc(Nc2ccc3c(c2)C(C)(C)OB3O)ncc1C [3,3-dimethyl-5-((5-methyl-4-(pentan-3-ylamino)pyrimidin-2-yl)amino)benzo[c][1,2]oxaborol-1(3H)-ol]	JAK+***
Cc1cnc(Nc2ccc3c(c2)C(C)(C)OB3O)nc1Nc1ccccc1 [3,3-dimethyl-5-((5-methyl-4-(phenylamino)pyrimidin-2-yl)amino)benzo[c][1,2]oxaborol-1(3H)-ol]	JAK+***
CCC(CC)Nc1nc(Nc2ccc3c(c2)B(O)OC3)ncc1C [6-((5-methyl-4-(pentan-3-ylamino)pyrimidin-2-yl)amino)benzo[c][1,2]oxaborol-1(3H)-ol]	JAK+*
Cc1cc(Nc2ncc(Cl)c(NC3CCCC3)n2)cc2c1B(O)OC2 [5-((5-chloro-4-(cyclopentylamino)pyrimidin-2-yl)amino)-7-methylbenzo[c][1,2]oxaborol-1(3H)-ol]	JAK+***
Cc1cnc(Nc2ccc3c(c2)B(O)OC3(C)C)nc1Nc1cccc(S(C)(=O)=O)c1 [3,3-dimethyl-6-((5-methyl-4-((3-(methylsulfonyl)phenyl)amino)pyrimidin-2-yl)amino)benzo[c][1,2]oxaborol-1(3H)-ol]	JAK+**

Second part, the compound after the results:

Activity Note: JAK	Compound
JAK+***	Cc1cnc(Nc2cc(Cl)c3c(c2)COB3O)nc1Nc1ccccc1 [7-chloro-5-((5-methyl-4-(phenylamino)pyrimidin-2-yl)amino)benzo[c][1,2]oxaborol-1(3H)-ol]
JAK+*	Cc1cnc(Nc2ccc3c(c2F)B(O)OC3)nc1Nc1cccc(S(C)(=O)=O)c1 [7-fluoro-6-((5-methyl-4-((3-(methylsulfonyl)phenyl)amino)pyrimidin-2-yl)amino)benzo[c][1,2]oxaborol-1(3H)-ol]
JAK+***	OB1OCc2cc(Nc3ncc(Cl)c(NC4CCCC4)n3)cc(Cl)c21 [7-chloro-5-((5-chloro-4-(cyclopentylamino)pyrimidin-2-yl)amino)benzo[c][1,2]oxaborol-1(3H)-ol]
JAK+**	COc1cc(Nc2ncc(C)c(SC)n2)cc2c1B(O)OC2 [7-methoxy-5-((5-methyl-4-(methylthio)pyrimidin-2-yl)amino)benzo[c][1,2]oxaborol-1(3H)-ol]
JAK+***	CCc1cc(Nc2ncc(C)c(Nc3ccccc3)n2)cc2c1B(O)OC2 [7-ethyl-5-((5-methyl-4-(phenylamino)pyrimidin-2-yl)amino)benzo[c][1,2]oxaborol-1(3H)-ol]
JAK+*	CCc1cc(N(c2ncc(C)c(NC(CC)CC)n2)S(=O)(=O)C(F)(F)F)cc2c1B(O)OC2 [N-(7-ethyl-1-hydroxy-1,3-dihydrobenzo[c][1,2]oxaborol-5-yl)-1,1,1-trifluoro-N-(5-methyl-4-(pentan-3-ylamino)pyrimidin-2-yl)methanesulfonamide]
JAK+***	Cc1cnc(Nc2cc(C)c3c(c2)COB3O)nc1Nc1ccccc1 [7-methyl-5-((5-methyl-4-(phenylamino)pyrimidin-2-yl)amino)benzo[c][1,2]oxaborol-1(3H)-ol]
